Test results: publication PMC10119930, “Dual Molecules Targeting 5-HT6 and GABA-A Receptors as a New Approach to Combat Depression Associated with Neuroinflammation” (ACS Chemical Neuroscience, 2023)
Several values for one entry are separate records, joined by “and”; a condition that tells them apart may be missing. Equal values may be shown once.

Key:
female Wistar rats = experiment: Forced swim test in rats; type: in vivo, rat; settings: acute, ip 30 min before test
Description: Naïve female Wistar rats (weighing 180–200 g) were used in the study. The animals were housed in groups of three to four in standard Makrolon cages (37 cm × 21 cm × 15 cm) under strictly controlled laboratory conditions (ambient temperature 21–24 °C, relative humidity 45–65%) with a 12/12 h light–dark regime (light on at 6:00 a.m. and off at 6:00 p.m.). Animals had unrestricted access to tap water and food (typical pellets). Prior the experiment the animals were randomly appointed to the group. The behavioral studies were accomplished between 8:00 a.m. and 5:00 p.m. with the researcher blind to the study. The experiments were performed according to protocols approved by the Local Ethical Committee in Krakow (Approval Number 147/2018), Poland. Housing and experimental procedures were conducted under the European Union Directive of September 22, 2010 (2010/63/EU) and Polish legislation regarding animal studies. All efforts were made to minimize animal suffering and the number of animals used in the study.
Vortioxetine (Sigma, Germany) and the tested compounds (16 and 6) were dissolved in 10% cyclodextrin and administered ip 30 min before the test or during 14 consecutive days, with the last injection 60 min before the test. 10% cyclodextrin was administrated to control group.
A modified forced swim test was carried out according to Detke et al.[50],[51] First, the animals were individually placed inside Plexiglas cylinders, which were 40 cm high and 18 cm in diameter, filled with water at a temperature of 23–25 °C for 15 min. Afterward, the rats were transferred to a Plexiglas box and kept under a 60 W bulb for 30 min to dry. The day after, exactly 24 h later, the rats were once again placed in the cylinder, and their duration of immobility, swimming, and climbing was observed and recorded during a 5 min. The swimming behavior involved energetic movements such as horizontal swimming around the cylinder, while climbing activity referred to upward movements of the forepaws along the swim chamber’s side. Immobility was recorded when the rat only made necessary movements to keep its head above the water. For each test, a fresh water was provided. Open field test in rats: The test was conducted as previously reported by our research group.[52] The test was performed in a darkened room employing the Motor Monitor System (Campden Instruments, Ltd., U.K.). The system was equipped with two SmartFrame Open Field stations, each measuring 40 cm × 40 cm × 38 cm and consisting of 16 × 16 beams. These stations were placed inside sound-attenuating chambers and connected to a PC software using […]. The animals, belonging to either the vehicle-injected or drug-injected group, were individually positioned at the center of the station. The Motor Monitor System, which was automated, recorded the animal’s ambulation in both the X and Y axes, as well as the number of rearing and peeping episodes. Additionally, the total distance traveled by each animal during the 5 min test period was also recorded. Statistical analysis: Results are presented as the mean ± SEM values. They were estimated using one-way analysis of variance (ANOVA), followed by Newman–Keuls post hoc or unpaired two-tailed Student t test. Statistical significance was considered when p < 0.05 for differences between groups.

5-HT6 receptor [1] = molecular target: T1, 5-HT6 receptor (Homo sapiens, UniProt P50406); experiment: Radioligand binding assay for 5-HT6 receptor ([3H]-LSD displacement); design: expressed in transfected cells; host or cells: HEK-293 (cryopreserved membranes); settings: for Ki: competitive replacement of [3H]-LSD, ±S.E.M., read-out: 5-HT6R Ki
Description: To determine the affinity for 5-HT6, the cryopreserved membranes from HEK-293 cells stably transfected with the human recombinant 5-HT6 receptor were used.[40] Preparation of the tested compounds included preparation of stock solutions in DMSO (1 mM) and subsequent serial dilutions (10^–10–10^–5 M) of tested compounds in the appropriate buffer (50 mM Tris buffer, pH 7.4, 10 mM MgCl2, 0.5 mM ethylenediaminetetraacetic acid). The serial dilutions were acquired directly on a 96-well microplate. The reaction mix included 50 μL of appropriate concentration of tested molecule, 50 μL of [^3H]LSD 2.5/2.0 nM, and 150 μL of diluted membranes. The microplate containing the reaction mix was protected with a sealing tape and incubated for 60 min at 37 °C. Quenching of the reaction mixtire included: rapid filtration through UniFilter 96 GF/B filter microplate and rapid washes using 200 μL 50 mM assay buffer and vacuum manifold and 96-well pipettor. The collected microplates were dried overnight at 37 °C. The UniFilter bottoms were sealed, and then 30 μL of Betaplate Scint liquid scintillator (PerkinElmer) was added to each well. […] The obtained data were fit to a one-site curve-fitting equation using Prism 5 software (GraphPad Software), and the Ki values were determined using the Cheng–Prusoff equation. Radioligand binding was performed in duplicates.

BV-2 microglia cells [2] = experiment: Anti-inflammatory assessment in LPS-stimulated BV-2 cells (NO, ROS, IL-6, TNF-α); type: cell-based, mouse; settings: 10 μM pretreatment 1 h, then LPS 18 h
Description: Mouse microglial (BV-2) cell line was a generous gift from Prof. Bożena Kamińska-Kaczmarek of the Nencki Institute of Experimental Biology, Polish Academy of Sciences, Warsaw, Poland. The cell culture medium: Dulbecco’s modified with high glucose (DMEM, Glutamx ThermoFisher) and supplemented with 10% inactivated fetal bovine serum heat (ThermoFisher), 100 IU/mL penicillin (Merck) and 100 μg/mL streptomycin (Merck). Cell culture conditions: culture flasks (area 175 cm^2, Nunc), temperature of 37 °C, 5% CO2. For the assessment of the effect of tested compounds on the quantities of reactive oxygen species, nitric oxide, and inflammatory markers, the BV-2 cells were positioned in a 96-well culture plate (5 × 10^4 cells per well, Falcon). In the case of cell membrane damage assay, a 96-well culture plate (2 × 10^4 cells per well, Falcon) was used. The cells were cultured in the incubator (37 °C, 5% CO2) for 24 h prior to the assay. The tested compounds were dissolved in DMSO to achieve the concentration of 10^–2 M. Serial dilutions of the compounds were prepared in PBS and added directly to the medium containing adherent cells. The resulting mixtures were examined for any evidence of precipitation or opalescence before the assay. BV-2 cells were incubated with selected molecules (6, 16 at a concentration of 10 μM) during 1 h. Subsequently, lipopolysaccharide (100 ng/mL) was added and the resulting mixture was incubated for 18 h. Next, the culture supernatant was collected to measure the levels of nitric oxide (NO), reactive oxygen species (ROS), IL-6, and TNF-α according to the procedures described in detail below. All experiments were performed in duplicates, in three independent experiments.
The quantities of NO produced by the cells were determined using DAN reagent (2,3-diaminonaphthalene), rendering the method protocol described by Nussler et al.[48] After incubating at room temperature for 15 min, the fluorescence intensity (EX 360; EM 440 nm) was measured using a microplate reader POLARstar Omega from BMG Labtech. The amounts of NO were then calculated as a percentage of the control (which represents the maximal response of LPS). ROS measurement. The fluorescent dye 2,7-dichlorodihydrofluorescein diacetate (DCFH-DA)[49] was utilized to determine the quantity of ROS released by BV-2 cells. After a 30 min incubation period at 37 °C with 10 μM DCFH-DA, the fluorescence intensity (EX 490; EM 520 nm) was examined using a microplate reader POLARstar Omega from BMG Labtech. The amounts of ROS were then expressed as a percentage of the control (which represents the maximal response of LPS). The IL-6 and TNF-α levels detected in the culture supernatants were quantified using LANCE Ultra TR-FRET detection kit (PerkinElmer), rendering the manufacturer’s procedure. The detection of IL-6 and TNF-α was performed independently in a 384-well plate according to the instructions provided. To each well of the plate, 15 μL of sample was added followed by the addition of 5 μL of premixed antibody solution. After incubating IL-6 for 1 h and TNF-α for 3 h in the absence of light, at 22 °C, the plates were transferred to an EnVision plate reader (PerkinElmer). Measurements were conducted at 320 nm wavelength for excitation, at 615 nm for donor emission, and at 660 nm for acceptor emission. The final data were determined as the ratio of the 660 nm signal to the 615 nm signal. The results represent the levels of each cytokine determined as a percentage of control (considered as maximal cell response to LPS). The GraphPad program was used to conduct statistical analysis, with all outcomes presented as mean values with standard deviation (SD). Differences between groups were assessed using one-way ANOVA, followed by post hoc analysis (Dunnett’s multiple comparison tests). Results were considered statistically significant if the p-value was less than 0.05. […]

BV-2 microglia cells [3] = experiment: Evaluation of microglia morphology by fluorescence microscopy (MitoTracker) after LPS; type: cell-based, mouse; settings: 10 μM pretreatment 1 h, LPS 18 h
5-HT6 receptor [4] = molecular target: T1, 5-HT6 receptor; experiment: Functional assay for 5-HT6 receptor, antagonist mode (aequorin, CHO-K1 cells); type: cell-based; design: expressed in transfected cells; host or cells: CHO-K1 (co-expressing mitochondrially targeted aequorin and G protein α16); settings: ±S.E.M., read-out: 5-HT6 R KB
Description: The studies were acquired according to previous protocols.[41] All the examined compounds (novel and the reference) were dissolved in DMSO (1 mM) and diluted accordingly using the assay buffer, directly in 96-well microplate. The recombinant CHO-K1 cells expressing human GPCR, mitochondrially targeted aequorin, and the promiscuous G protein α16 specific for 5-HT6 were used for the functional assay. The cells were thawed and suspended in the appropriate buffer containing DMEM/HAM’s F12 with 0.1% protease free BSA and were then centrifuged. After adding coelenterazine h to a final concentration of 5 μM, the cell pellet was resuspended in the buffer. The cell suspension was incubated at 16 °C for 16 h while being protected from light, gently shaken, and diluted with assay buffer to a concentration of 5000 cells/mL. Following that, 50 μL of the cell suspension was introduced to preloaded white opaque 96-well microplates containing the tested molecules. This was done using the automatic injectors integrated into the radiometric and luminescence plate counter MicroBeta2 LumiJET (PerkinElmer, USA). The light emission resulting from calcium mobilization was monitored for a duration of 60 s. For examination of the antagonistic properties of tested molecule, following 30 min of incubation, the reference agonist was administrated and the light emission was detected.

[5] = molecular target: muscimol site of the GABA-A receptor; experiment: Radioligand binding assay for GABA-A receptor ([3H]muscimol displacement, rat brain homogenate); settings: competitive replacement of [3H]muscimol; ±S.E.M.
Description: The study was acquired according to the earlier protocols.[39] The rats’ brains were homogenized and prepared accurately according to the previous protocol.[39] On the day of the study, brain homogenates were thawed at room temperature and “diluted” in 20 volumes of ice-cold 50 mM Tris-HCl buffer (pH 7.4) and centrifuged (20.000g, 30 min, 0–4 °C). The assay was performed directly on 96-well microplates, which contained 50 mM Tris-HCl buffer (pH 7.4) in a total volume of 300 μL. Reaction mix included 240 μL of the brain tissue suspension, 30 μL of [^3H]-muscimol, and 30 μL solution of tested compounds (administrated at various concentrations: 10^–10–10^–5 M). […] The 96-well microplates containing the reaction mix were incubated for 10 min at 0 °C, followed by rapid filtration over glass fiber filters FilterMate B (PerkinElmer, USA) using the Harvester-96 MACH III FM (Tomtec, USA). The filter mats were dried using a microwave and then placed inside a plastic bag (PerkinElmer, USA). After that, they were soaked in 10 mL of Ultima Gold MV liquid scintillation cocktail (PerkinElmer, USA). […] Ki values were estimated according to the Cheng and Prusoff equation. The study was performed in duplicates. The statistical analysis was performed using (GraphPad Prism, version 4.0, San Diego, CA, USA).

[6] = tested on: human α1β2γ2-GABA-A receptors; experiment: Electrophysiological studies, automated patch clamp (QPatch16X), HEK293 cells; type: cell-based; settings: agonist mode, compound at 10 μM; current amplitude normalized to 10 μM GABA response; ±S.E.M.
Description: Electrophysiological studies were acquired using the QPatch16X automatic patch clamp platform (Sophion Biosciences) as described before.[42],[43] […] Before the assay, cells were detached from the culture flask by treating them with TrypLE Express solution (Life Technologies) and subsequently suspended in serum-free media. The cells were loaded into a 1.5 mL microtube on the automated electrophysiology instrument, which subsequently performed a spin-down using its built-in centrifuge. Following this, the cells were washed with Ringer’s extracellular solution. The cells were moved to the pipetting wells of a 16-channel planar patch chip plate (QPlate 16X) designed for single-use. A combined suction/voltage protocol was then applied to establish gigaseals. […] During the entire whole-cell recording, the holding potential was maintained at −90 mV. […] The intracellular solution contained 140 mM CsF, 1 mM EGTA, 5 mM CsOH, 10 mM HEPES, 20 mMNaCl (pH 7.2, 320 mOsm). […] The acquired data were examined with QPatch assay software (v5.0, Sophion Biosciences)[44] and are represented as the mean of three separated measurements performed on distinct cells. The efficacy of the tested molecules was determined by calculating the baseline-corrected ratio of the maximum current amplitudes elicited by the tested compounds and the reference agonist (T1-ATG/AG1-ATG or T2-ATG/AG1-ATG). The raw current recordings were standardized and presented as a percentage of the current amplitude evoked by the reference agonist, using the QPatch assay software (v5.0, Sophion Biosciences).

T1 sequence (P50406 whole entry): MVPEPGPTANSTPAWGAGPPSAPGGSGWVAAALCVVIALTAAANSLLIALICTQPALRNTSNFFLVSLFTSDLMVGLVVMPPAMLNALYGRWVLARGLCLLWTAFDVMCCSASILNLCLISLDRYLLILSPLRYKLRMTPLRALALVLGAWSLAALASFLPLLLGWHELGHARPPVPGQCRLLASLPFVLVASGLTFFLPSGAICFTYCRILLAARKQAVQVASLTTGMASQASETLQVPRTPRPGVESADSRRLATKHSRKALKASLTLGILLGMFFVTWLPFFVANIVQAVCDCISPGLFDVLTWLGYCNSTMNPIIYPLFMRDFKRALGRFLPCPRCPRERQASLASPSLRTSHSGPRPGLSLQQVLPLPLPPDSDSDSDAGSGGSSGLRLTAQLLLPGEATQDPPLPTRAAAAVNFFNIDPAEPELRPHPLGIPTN

Cc1c(OCc2ccccc2)cccc1N1CCN(CCO)CC1 [Compound 6, 2-(4-(3-(Benzyloxy)-2-methylphenyl)piperazin-1-yl)ethan-1-ol]
immobility, climbing and swimming behaviors (female Wistar rats): did not influence any of the above behaviors
Ki (5-HT6 receptor [1]): 8 ± 0.8 nM
LPS-induced IL-6 production (BV-2 microglia cells [2]): did not change
LPS-induced NO production (BV-2 microglia cells [2]): did not change
LPS-induced ROS production (BV-2 microglia cells [2]): did not change
LPS-induced TNF-α production (BV-2 microglia cells [2]): did not change
mitochondrial membrane potential / morphology of microglia exposed to LPS (BV-2 microglia cells [3]): mitochondrial membrane potential was changed

Cl.Cl.NCCCC(=O)OCCN1CCN(c2cccc3c2OCC(=O)N3Cc2ccccc2)CC1 [Compound 19, 1-(2-((4-Ammoniobutanoyl)oxy)ethyl)-4-(4-benzyl-3-oxo-3,4-dihydro-2H-benzo[b][1,4]oxazin-8-yl)piperazin-1-ium Dichloride]
Kb (5-HT6 receptor [4]): 7 ± 0.1 nM
Ki [5]: 247 ± 24.7 nM
Ki (5-HT6 receptor [1]): 25 ± 1 nM
fold higher 5-HT6 affinity compared to 18 (5-HT6 receptor [1]; ratio of Ki values): 5 fold
[%] of 10 μM GABA activity [6]: 9.5% and 9.5 ± 3.5%
